In patent US20240018145A1, “[…]-DEPENDENT EN[…] TREATING OR […]” (priority 2020, published 2024):
Read-outs that look alike come from different tables or passages of the source.

Test system: FLU A (PR/8/34)
Test: Flu A Neuraminidase Antiviral Assay
Assay type: cell-based

`CCc1ccccc1C1C(CC(F)(F)F)CCC2N(C)C(=O)c3c(O)c(=O)ccn3N12` (single isomer, unassigned) [Compound 112B, 1-(2-ethylphenyl)-7-hydroxy-5-methyl-2-(2,2,2-trifluoroethyl)-1,2,3,4,4a,5-hexahydrodipyrido[1,2-b:2′,1′-f][1,2,4]triazine-6,8-dione] was tested, and the EC50 was 162 nM.
`CN1C(=O)c2c(O)c(=O)ccn2N2C1/C(=C/c1ccccc1)C[C@@H](O)[C@@]2(C)c1ccccc1` (stereo partly drawn) [Compound 149, (1R,2R)-4-((E)-benzylidene)-2,7-dihydroxy-1,5-dimethyl-1-phenyl-1,2,3,4,4a,5-hexahydrodipyrido[1,2-b:2′,1′-f][1,2,4]triazine-6,8-dione] gave an EC50 (MDCK, 48 h) greater than 810 nM.
`CN1C(=O)c2c(O)c(=O)ccn2N2C(c3c(F)cccc3F)C(CC(F)(F)F)CCC12` (single isomer, unassigned) [Compound 123A, 1-(2,6-difluorophenyl)-7-hydroxy-5-methyl-2-(2,2,2-trifluoroethyl)-1,2,3,4,4a,5-hexahydrodipyrido[1,2-b:2′,1′-f][1,2,4] triazine-6,8-dione] showed an EC50 greater than 8100 nM.
For `CN1C(=O)c2c(O)c(=O)ccn2N2C(c3ccccc3)C(CCC3CC3)CCC12` (single isomer, unassigned) [Compound 115B, 2-(2-cyclopropylethyl)-7-hydroxy-5-methyl-1-phenyl-1,2,3,4,4a,5-hexahydrodipyrido[1,2-b:2′,1′-f][1,2,4]triazine-6,8-dione], the EC50 was greater than 8100 nM.
Work on `CN1C(=O)c2c(O)c(=O)ccn2N2C(c3ccccc3)C3CCC(C3)C12` (single isomer, unassigned) [Compound 9D, 4-hydroxy-6-methyl-11-phenyl-6a,7,8,9,10,11-hexahydro-3H-7,10-methanopyrido[1′,2′:1,6][1,2,4]triazino[2,3-a]azepine-3,5(6H)-dione] yielded an EC50 greater than 8100 nM.
In the case of `CN1C(=O)c2c(O)c(=O)ccn2N2C1CCC1(CC(F)(F)C1)C2c1ccccc1` (single isomer, unassigned) [Compound 74B, 3,3-difluoro-7′-hydroxy-5′-methyl-1′-phenyl-3′,4′,4a′,5′-tetrahydro-1′H-spiro[cyclobutane-1,2′-dipyrido[1,2-b:2′,1′-f][1,2,4]triazine]-6′,8′-dione], the EC50 is reported as 15.7 nM.
Work on `CN1C(=O)c2c(O)c(=O)ccn2N2C1CCC(=O)C2(C)c1ccccc1` (stereo not drawn) [Compound 138B, 7-hydroxy-1,5-dimethyl-1-phenyl-3,4,4a,5-tetrahydrodipyrido[1,2-b:2′,1′-f][1,2,4]triazine-2,6,8(1H)-trione] yielded an EC50 of 1720 nM.
In the case of `CN1C(=O)c2c(O)c(=O)ccn2N2C(c3c(F)cccc3F)CCCC12` (single isomer, unassigned) [Compound 7B, 1-(2,6-difluorophenyl)-7-hydroxy-5-methyl-1,2,3,4,4a,5-hexahydrodipyrido[1,2-b:2′,1′-f][1,2,4]triazine-6,8-dione], the EC50 is reported as 256 nM.
`COC1(c2ccccc2)CCCC2C1n1ccc(=O)c(O)c1C(=O)N2C` (stereo not drawn) [Compound 167, 7-hydroxy-1-methoxy-5-methyl-1-phenyl-1,3,4,4a,5,11a-hexahydro-2H-pyrido[1,2-a]quinoxaline-6,8-dione] showed an EC50 (MDCK, 48 h) of 109 nM.
Work on `CN1C(=O)c2c(O)c(=O)ccn2N2C(c3ccccc3)CCC12` (stereo not drawn) [Compound 60B, 6-hydroxy-4-methyl-1-phenyl-2,3,3a,4-tetrahydro-1H-pyrido[2,1-f]pyrrolo[1,2-b][1,2,4]triazine-5,7-dione] yielded an EC50 (MDCK, 48 h) of 884 nM.
For `O=C1c2c(O)c(=O)ccn2N2C(c3ccccc3)C(CC3(C(F)(F)F)CC3)CCC2N1CC1CC1` (single isomer, unassigned) [Compound 90A, 5-(cyclopropylmethyl)-7-hydroxy-1-phenyl-2-((1-(trifluoromethyl)cyclopropyl)methyl)-1,2,3,4,4a,5-hexahydrodipyrido[1,2-b:2′,1′-f][1,2,4]triazine-6,8-dione], the EC50 was 772 nM.
Work on `CC(C)S[C@H]1CC[C@H]2N(C)C(=O)c3c(O)c(=O)ccn3N2[C@@H]1c1ccccc1` [Compound 143B] yielded an EC50 (MDCK, 48 h) of 15.3 nM.
